Measured values as given in article PMC12704298, “Divergent acetyl-CoA binding modes mediate allosteric inhibition of bacterial hybrid-type malic enzymes” (The Journal of Biological Chemistry, 2025).

Assays:
[1] = target: T1, EcMaeB (Escherichia coli, UniProt P76558); assay: Acetyl-CoA IC50 plot against MaeB activity (spectrophotometric NADPH assay); assay type: biochemical
T1 construct: His-tag (C); made in house; host or cells: E. coli BL21(DE3)
T1 sequence (P76558 1-759): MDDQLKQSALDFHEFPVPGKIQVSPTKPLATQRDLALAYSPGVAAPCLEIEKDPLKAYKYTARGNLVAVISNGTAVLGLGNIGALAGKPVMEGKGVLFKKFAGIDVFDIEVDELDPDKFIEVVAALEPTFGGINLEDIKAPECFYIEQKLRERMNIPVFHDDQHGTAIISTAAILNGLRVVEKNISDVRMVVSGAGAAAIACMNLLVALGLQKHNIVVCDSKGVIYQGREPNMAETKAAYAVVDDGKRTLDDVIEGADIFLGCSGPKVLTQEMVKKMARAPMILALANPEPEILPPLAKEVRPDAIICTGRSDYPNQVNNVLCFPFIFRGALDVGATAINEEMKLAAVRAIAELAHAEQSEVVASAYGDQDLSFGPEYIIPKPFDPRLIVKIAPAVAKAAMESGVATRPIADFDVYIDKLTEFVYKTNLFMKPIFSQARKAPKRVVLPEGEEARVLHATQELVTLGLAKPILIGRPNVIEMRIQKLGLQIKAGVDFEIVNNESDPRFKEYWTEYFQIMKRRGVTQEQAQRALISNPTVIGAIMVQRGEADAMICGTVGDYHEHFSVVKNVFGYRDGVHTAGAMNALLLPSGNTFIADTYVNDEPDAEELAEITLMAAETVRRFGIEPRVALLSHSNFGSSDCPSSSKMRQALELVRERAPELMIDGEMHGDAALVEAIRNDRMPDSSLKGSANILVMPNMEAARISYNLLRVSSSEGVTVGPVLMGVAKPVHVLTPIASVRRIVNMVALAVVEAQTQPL
Method: (§1) Spectrophotometric assays were used to monitor the oxidative decarboxylation of L-malate to pyruvate using a SpectraMax M2, UV-Visible spectrophotometer (Molecular Devices) operated by SoftMax Pro Software with kinetic mode. All assays recorded the Δabsorbance at 340 nm (NADPH) at 30 °C. Assays were initiated by the addition of enzyme to the otherwise complete reaction mixture. […] Acetyl-CoA was tested at 5 μM.
(§2) The IC50 plot for Acetyl-CoA against MaeB activity was obtained by varying acetyl-CoA concentrations. The assay was performed in the standard reaction condition with 100 nM final enzyme concentration. The data were fitted to the four-parameter logistic model: v0=Bottom+Top−Bottom/1+([Acetyl-CoA]/IC50)^h where h means the Hill slope value and “Top” and “Bottom” corresponds to the maximum and minimum v0 of the fitted curve, respectively ([81]). Fitting was performed using Rstudio.

[2] = tested on: AbMaeB1; set-up: method as in PMID 32485238; settings: AbMaeB1, compared to EcMaeB and BbMaeB; cited from earlier work
[3] = target: T1, EcMaeB; assay: Enzyme kinetic parameters (Michaelis-Menten, substrate inhibition, empirical Hill plots); assay type: biochemical; settings: EcMaeB; versus malate, not conclusive
Method: as §1
(§3) For this substrate inhibition model, x should be fixed. […] The plots shown in Fig. S1F were fitted to the empirical Hill equation: v0=Vmax·[malate]^h/(K0.5h+[malate]^h) where K0.5 indicates the substrate concentration for half-saturation. When h is equal to 1, K0.5 matches Michaelis constant Km.

[4] = target: BbMaeB-SSB (Bdellovibrio bacteriovorus, UniProt A0A1Z3N8R4); assay: Acetyl-CoA IC50 plot against MaeB activity (spectrophotometric NADPH assay); assay type: biochemical, Bdellovibrio bacteriovorus strain SSB218315
Method: as §1, §2

[5] = tested on: DME; set-up: method as in PMID 10407149; settings: cited from earlier work
[6] = tested on: TME; set-up: method as in PMID 10407149; settings: cited from earlier work
[7] = tested on: T2, EcMaeB Y510A; assay: %Activity assay with 5 μM acetyl-CoA; assay type: biochemical, Escherichia coli
T2 construct: His-tag (C); made in house; host or cells: E. coli BL21(DE3)
Method: (§4) Spectrophotometric assays were used to monitor the oxidative decarboxylation of L-malate to pyruvate using a SpectraMax M2, UV-Visible spectrophotometer (Molecular Devices) operated by SoftMax Pro Software with kinetic mode. All assays recorded the Δabsorbance at 340 nm (NADPH) at 30 °C. Assays were initiated by the addition of enzyme to the otherwise complete reaction mixture. […] Acetyl-CoA was tested at 5 μM. The results are presented as “%Activity”: a percentage of the measured activity in the presence of effector compared to the measured activity of MaeB under standard reaction conditions.

[8] = tested on: T3, EcMaeB R482A/Y510A; assay: %Activity assay with 5 μM acetyl-CoA; assay type: biochemical, Escherichia coli
T3 construct: His-tag (C); made in house; host or cells: E. coli BL21(DE3)
Method: as §4

[9] = tested on: T4, EcMaeB R475A/Y510A; assay: %Activity assay with 5 μM acetyl-CoA; assay type: biochemical, Escherichia coli
T4 construct: His-tag (C); made in house; host or cells: E. coli BL21(DE3)
Method: as §4

[10] = tested on: T5, EcMaeB R475A/R482A/Y510A; assay: %Activity assay with 5 μM acetyl-CoA; assay type: biochemical, Escherichia coli
T5 construct: His-tag (C); made in house; host or cells: E. coli BL21(DE3)
Method: as §4

[11] = tested on: T6, EcMaeB R482A; assay: %Activity assay with 5 μM acetyl-CoA; assay type: biochemical, Escherichia coli
T6 construct: His-tag (C); made in house; host or cells: E. coli BL21(DE3)
Method: as §4

[12] = tested on: T7, EcMaeB R475A/R482A; assay: %Activity assay with 5 μM acetyl-CoA; assay type: biochemical, Escherichia coli
T7 construct: His-tag (C); made in house; host or cells: E. coli BL21(DE3)
Method: as §4

[13] = tested on: T8, EcMaeB R475A; assay: %Activity assay with 5 μM acetyl-CoA; assay type: biochemical, Escherichia coli
T8 construct: His-tag (C); made in house; host or cells: E. coli BL21(DE3)
Method: as §4

[14] = tested on: T9, EcMaeB WT; assay: %Activity assay with 5 μM acetyl-CoA; assay type: biochemical, Escherichia coli
T9 construct: His-tag (C); made in house; host or cells: E. coli BL21(DE3)
Method: as §4

[15] = tested on: BbMaeB-HD; set-up: method as in PMID 33623032; settings: earlier study; cited from earlier work
[16] = target: T10, BbMaeB (Bdellovibrio bacteriovorus, UniProt A0A1Z3N8R4); assay: Enzyme kinetic parameters (Michaelis-Menten, substrate inhibition, empirical Hill plots); assay type: biochemical, Bdellovibrio bacteriovorus strain SSB218315; settings: versus malate
T10 sequence (A0A1Z3N8R4 1-776): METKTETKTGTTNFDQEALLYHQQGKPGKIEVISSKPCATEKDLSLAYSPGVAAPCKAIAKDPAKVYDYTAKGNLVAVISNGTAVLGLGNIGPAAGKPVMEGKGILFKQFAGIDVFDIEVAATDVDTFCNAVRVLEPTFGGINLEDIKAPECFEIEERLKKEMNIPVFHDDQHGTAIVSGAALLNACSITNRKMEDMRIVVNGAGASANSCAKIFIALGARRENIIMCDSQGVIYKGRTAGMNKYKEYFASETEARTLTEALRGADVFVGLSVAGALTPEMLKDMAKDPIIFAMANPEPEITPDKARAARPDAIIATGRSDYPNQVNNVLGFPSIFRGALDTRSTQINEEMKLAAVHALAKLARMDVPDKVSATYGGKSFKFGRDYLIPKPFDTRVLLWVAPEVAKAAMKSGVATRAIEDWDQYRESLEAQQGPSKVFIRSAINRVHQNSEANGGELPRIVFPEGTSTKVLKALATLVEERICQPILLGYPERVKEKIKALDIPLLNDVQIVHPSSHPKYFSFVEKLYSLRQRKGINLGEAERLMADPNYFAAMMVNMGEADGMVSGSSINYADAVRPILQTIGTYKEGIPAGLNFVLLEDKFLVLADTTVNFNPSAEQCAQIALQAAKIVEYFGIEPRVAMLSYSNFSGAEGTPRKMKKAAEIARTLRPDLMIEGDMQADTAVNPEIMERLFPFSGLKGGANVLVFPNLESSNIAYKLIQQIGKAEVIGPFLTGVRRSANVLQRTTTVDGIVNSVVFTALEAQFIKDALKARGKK
Method: as §1, §3

[17] = 5 mM L-malate, 0.5 mM NADP+, 1 μM enzyme
[18] = relative to WT without acetyl-CoA

CC(=O)SCCNC(=O)CCNC(=O)[C@H](O)C(C)(C)COP(=O)(O)OP(=O)(O)OC[C@H]1O[C@@H](n2cnc3c(N)ncnc32)[C@H](O)[C@@H]1OP(=O)(O)O [acetyl-CoA, acetyl coenzyme A]
Hill slope factor derived from the IC50 curve [1]: greater than one
IC50 ([1]; 5 mM L-malate, 0.5 mM NADP+, 5 mM MgCl2, 100 nM enzyme, 30 °C): 102000 ± 4920 nM
allosteric inhibition of AbMaeB1 [2]: requires higher concentrated acetyl-CoA to show allosteric inhibition
mode of inhibition [3]: may follow a non-competitive mode
Hill slope factor derived from the IC50 curve ([4]; BbMaeB): greater than one
IC50 ([4]; BbMaeB-SSB, 5 mM L-malate, 0.5 mM NADP+, 5 mM MgCl2, 100 nM enzyme, 30 °C): 131 ± 4 nM
effect on DME activity [5]: inhibited
allosteric regulation of TME [6]: does not show any allosteric regulation
effect of acetyl-CoA on activity [7]: insensitive to allosteric inhibition
NADP^+ production, With Acetyl-CoA [7, 17]: 19.4 ± 4.0 µM/min
Activity (%), With Acetyl-CoA [7, 18]: 74.0 ± 15.4%
effect of acetyl-CoA on activity [8]: did not change their activity
NADP^+ production, With Acetyl-CoA [8, 17]: 7.0 ± 0.1 µM/min
Activity (%), With Acetyl-CoA [8, 18]: 26.7 ± 0.5%
NADP^+ production, With Acetyl-CoA [9, 17]: 31.9 ± 2.0 µM/min
Activity (%), With Acetyl-CoA [9, 18]: 121.9 ± 7.6%
effect of acetyl-CoA on activity [10]: did not change their activity
NADP^+ production, With Acetyl-CoA [10, 17]: 10.3 ± 0.4 µM/min
Activity (%), With Acetyl-CoA [10, 18]: 39.5 ± 1.4%
effect of acetyl-CoA on activity [11]: did not change their activity
NADP^+ production, With Acetyl-CoA [11, 17]: 8.4 ± 1.4 µM/min
Activity (%), With Acetyl-CoA [11, 18]: 32.3 ± 5.5%
effect of acetyl-CoA on activity [12]: did not change their activity
NADP^+ production, With Acetyl-CoA [12, 17]: 10.7 ± 0.5 µM/min
Activity (%), With Acetyl-CoA [12, 18]: 40.8 ± 2.0%
effect of acetyl-CoA on activity [13]: insensitive to allosteric inhibition
NADP^+ production, With Acetyl-CoA [13, 17]: 21.6 ± 3.7 µM/min
Activity (%), With Acetyl-CoA [13, 18]: 82.4 ± 14.0%
effect of acetyl-CoA on activity [14]: reduced the activity by about half
NADP^+ production, With Acetyl-CoA [14, 17]: 12.1 ± 2.2 µM/min
Activity (%), With Acetyl-CoA [14, 18]: 46.4 ± 8.5%
IC50 [15]: 453 ± 19 nM
mode of inhibition [16]: non-competitive
